# Assay results from patent US20260224688A1, “HELPER LIPIDS FOR NUCLEIC ACID DELIVERY” (SANOFI PASTEUR INC., priority 2023, published 2026).
# Key:
# [1] = Dynamic light scattering of lipid nanoparticles (size, PDI); assay type: physicochemical
# Protocol: (§1) Lipid nanoparticle formulations 3 were prepared by Process A at a molar ratio of 40:1.5:30:28.5 (Cationic Lipid: DMG-PEG2000: Cholesterol: Helper Lipid) with the cationic lipids and helper lipids disclosed in the tables below. The Polydispersity Index (Pdl) of lipid nanoparticles can be determined by diluting the formulation in 10% trehalose at about 0.1 mg/ml mRNA concentration and then measuring the size on Malvern zetasizer. The lipid nanoparticle size can be obtained with Malvern Zetasizer Nano-ZS.
# Dynamic light scattering (DLS) measurements were performed using a Malvern Instruments Zetasizer with a backscattering detector angle of 173° and a 4-mW, 633-nm He—Ne laser (Worcestershire, UK). The samples were analyzed by diluting in 10% Trehalose and measuring the size and Poly dispersity Index (PDI) in an optical grade polystyrene cuvette.
# [2] = mRNA encapsulation efficiency of lipid nanoparticles; assay type: physicochemical; conditions: for Encapsulation efficiency (EE): LNP with cationic lipid CL-A
# From the text: In embodiments, the lipid nanoparticle encapsulates a nucleic acid, optionally an mRNA encoding a peptide or protein. In embodiments, the lipid nanoparticle encapsulates an mRNA encoding a peptide or protein, optionally for use in a vaccine. In embodiments, the peptide is an antigen. As used herein, the phrase “encapsulation percentage” refers to the fraction of therapeutic agent (e.g. mRNA) that is effectively encapsulated within a liposomal-based vehicle (e.g. a lipid nanoparticle) relative to the initial fraction of therapeutic agent present in the lipid phase. In embodiments, the lipid nanoparticles have an encapsulation percentage for mRNA of at least 50%. In embodiments, the lipid nanoparticles have an encapsulation percentage for mRNA of at least 55%. In embodiments, the lipid nanoparticles have an encapsulation percentage for mRNA of at least 60%. In embodiments, the lipid nanoparticles have an encapsulation percentage for mRNA of at least 65%. In embodiments, the lipid nanoparticles have an encapsulation percentage for mRNA of at least 70%. In embodiments, the lipid nanoparticles have an encapsulation percentage for mRNA of at least 75%. In embodiments, the lipid nanoparticles have an encapsulation percentage for mRNA of at least 80%. In embodiments, the lipid nanoparticles have an encapsulation percentage for mRNA of at least 85%. In embodiments, the lipid nanoparticles have an encapsulation percentage for mRNA of at least 90%. In embodiments, the lipid nanoparticles have an encapsulation percentage for mRNA of at least 95%. In embodiments, the encapsulation percentage is calculated by performing the Ribogreen assay (Invitrogen) with and without the presence of 0.1% Triton-X 100.
# The lipid nanoparticles in the examples of the present invention were formulated using Process A of WO 2018/089801 (see, e.g., Example 1 and FIG. 1 of WO 2018/089801). Process A (“A”) relates to a conventional method of encapsulating mRNA by mixing mRNA with a mixture of lipids, without first pre-forming the lipids into lipid nanoparticles. In an exemplary process, an ethanolic solution of a mixture of lipids (cationic lipid, phosphatidylethanolamine, cholesterol, and polyethylene glycol-lipid) at a fixed lipid to mRNA ratio were combined with an aqueous buffered solution of target mRNA at an acidic pH under controlled conditions to yield a suspension of uniform LNPs. After ultrafiltration and diafiltration into a suitable diluent system, the resulting nanoparticle suspensions were diluted to final concentration, filtered, and stored frozen at −80° C. until use.
# as §1
# hEPO [3] = test: IM EPO expression of LNPs containing new helper lipids (hEPO in serum by ELISA); assay type: in vivo, female BALB/cJ mice; conditions: single IM injection
# Protocol: Lipid nanoparticles were formulated containing the four lipid components shown below at a ratio of 40:30:28.5:1.5, complexed with a hEPO messenger RNA. • Cationic lipid, 40 mol % • Phospholipid (PEA) helper lipid, 30 mol % • Cholesterol, 28.5 mol % • DMG-PEG-2K (1,2-dimyristoyl-rac-glycero-3-methoxypolyethyleneglycol), 1.5 mol % The cationic lipid component of each formulation was selected from the compounds in the table below: […]
# EPO expression studies were conducted with female BALB/cJ mice 6-8 weeks of age. Mice were dosed with […] EPO mRNA in 30 μL of LNPs by a single intramuscular (IM) injection into the gastrocnemius leg muscle. Blood samples were taken 6 and 24 hours post injection and hEPO levels were measured in the blood serum of the mice using an ELISA assay according to the manufacture's protocol. WO2022/099003 A1 also describes an in vivo assay for intramuscular administration (e.g. on page 46, paragraph [00206]).
# hEPO [4] = test: IV EPO expression of LNPs (tail vein injection); assay type: in vivo, female BALB/cJ mice; conditions: cationic lipid CL-0137, helper lipid 30 mol %; 0.017 μg EPO mRNA tail vein; 6 hours; DOPE = 1
# Protocol: Lipid nanoparticles were formulated containing the four lipid components shown below at a ratio of 40:30:28.5:1.5, complexed with a hEPO messenger RNA. • Cationic lipid CL-0137, 40 mol % • Helper lipid, 30 mol % • Cholesterol, 28.5 mol % • DMG-PEG-2K (1,2-dimyristoyl-rac-glycero-3-methoxypolyethyleneglycol), 1.5 mol %
# EPO expression studies were conducted with female BALB/cJ mice 6-8 weeks of age. Mice were dosed with 0.017 μg EPO mRNA LNPs in a volume of 5 ul by a single tail vein injection. Blood samples were taken 6 hours post injection and hEPO levels were measured in the blood serum of the mice using an ELISA assay according to the manufacture's protocol.
# [5] = LNP with cationic lipid CL-A, hEPO mRNA, 40:30:28.5:1.5
# [6] = CL-A LNP, 0.1 μg EPO mRNA in 30 μL, serum 6 hours post injection
# [7] = CL-B LNP, serum 6 hours post injection
Compound,Polydispersity Index (PDI) ([1]; LNP with cationic lipid CL-A),"Size [1, 5]",PDI ([1]; LNP with cationic lipid CL-B),Size ([1]; LNP with cationic lipid CL-B),PDI ([1]; LNP with cationic lipid CL-C),Size ([1]; LNP with cationic lipid CL-C),Encapsulation efficiency (EE) [2],EE ([2]; LNP with cationic lipid CL-B),EE ([2]; LNP with cationic lipid CL-C),6-h EPO (hEPO [3]; [6]),6-h EPO (hEPO [3]; [7]),"6-h EPO (hEPO [3]; CL-C LNP, (6-h))",Normalized Mean IV EPO expression (hEPO [4])
CCCCCCCCC(CCCCCCCC)OC(=O)CCCCCCC(=O)OC[C@H](COP(=O)(O)OCCN(C)C)OC(=O)CCCCCCC(=O)OC(CCCCCCCC)CCCCCCCC [Compound 14],0.068,148 nm,0.067,137.0 nm,0.141,101.4 nm,96%,92%,91%,0 ng/mL,35.4 ng/mL,34.6 ng/mL,0.95
"CCCCCCCCC(CCCCCCCC)OC(=O)CCCCCC(=O)OCC(COP(=O)(O)OCCN(C)C)OC(=O)CCCCCC(=O)OC(CCCCCCCC)CCCCCCCC (centres unmarked) [Compound 15, O′^1,O^1-(3-(((2-(Dimethylamino)ethoxy)(hydroxy)phosphoryl)oxy)propane-1,2-diyl) 7-di(heptadecan-9-yl) di(heptanedioate)]",0.083,138 nm,0.087,110.7 nm,0.091,108.0 nm,95%,94%,91%,25.3 ng/mL,30 ng/mL,15.2 ng/mL,2.24
"CCCCCCCCC(CCCCCCCC)OC(=O)CCCCCCCC(=O)OCC(COP(=O)(O)OCCN(C)C)OC(=O)CCCCCCCC(=O)OC(CCCCCCCC)CCCCCCCC (centres unmarked) [Compound 16, O′^1,O^1-(3-(((2-(Dimethylamino)ethoxy)(hydroxy)phosphoryl)oxy)propane-1,2-diyl) 9-di(heptadecan-9-yl) di(nonanedioate)]",0.052,128 nm,0.069,108.1 nm,0.077,102.7 nm,95%,94%,91%,17.4 ng/mL,32.1 ng/mL,9.7 ng/mL,1.59
"CCCCCCCCC(CCCCCCCC)C(=O)OCCCCCC(=O)OCC(COP(=O)(O)OCCN(C)C)OC(=O)CCCCCOC(=O)C(CCCCCCCC)CCCCCCCC (centres unmarked) [Compound 17, ((3-(((2-(Dimethylamino)ethoxy)(hydroxy)phosphoryl)oxy)propane-1,2-diyl)bis(oxy))bis(6-oxohexane-6,1-diyl) bis(2-octyldecanoate)]",0.071,137 nm,0.022,122.7 nm,0.054,110.9 nm,93%,81%,60%,16.3 ng/mL,14.5 ng/mL,31.7 ng/mL,4.53
"CCCCCCCCC(CCCCCCCC)C(=O)OCCCCCCC(=O)OCC(COP(=O)(O)OCCN(C)C)OC(=O)CCCCCCOC(=O)C(CCCCCCCC)CCCCCCCC (centres unmarked) [Compound 18, ((3-(((2-(Dimethylamino)ethoxy)(hydroxy)phosphoryl)oxy)propane-1,2-diyl)bis(oxy))bis(7-oxoheptane-7,1-diyl) bis(2-octyldecanoate)]",0.072,155 nm,0.104,117.5 nm,0.104,117.5 nm,93%,89%,89%,30.1 ng/mL,23.7 ng/mL,28.8 ng/mL,4.68
"CCCCCCCCCCC(CCCCCCCCCC)OC(=O)CCCCCCC(=O)OCC(COP(=O)(O)OCCN(C)C)OC(=O)CCCCCCC(=O)OC(CCCCCCCCCC)CCCCCCCCCC (centres unmarked) [Compound 19, O′1,O1-(3-(((2-(dimethylamino)ethoxy)(hydroxy)phosphoryl)oxy)propane-1,2-diyl) 8-di(henicosan-11-yl) di(octanedioate)]",0.075,136 nm,0.095,112.7 nm,0.078,110.6 nm,94%,93%,92%,11.7 ng/mL,28.9 ng/mL,12.9 ng/mL,2.59
"CCCCCCCCC(CCCCCCCC)OC(=O)CCCCCCC(=O)OCC(COP(=O)(O)OCC[N+](C)(C)C)OC(=O)CCCCCCC(=O)OC(CCCCCCCC)CCCCCCCC (centres unmarked) [Compound 24, 2-(((2,3-Bis((8-(heptadecan-9-yloxy)-8-oxooctanoyl)oxy)propoxy)(hydroxy)-phosphoryl)oxy)-N,N,N-trimethylethan-1-aminium]",0.055,160 nm,0.111,107.0 nm,0.116,108.8 nm,94%,87%,85%,19.2 ng/mL,29.4 ng/mL,19.5 ng/mL,1.82
CCCCCCCCC(CCCCCCCC)OC(=O)CCCCCCC(=O)OCC(COP(=O)(O)OCCN(C)CCO)OC(=O)CCCCCCC(=O)OC(CCCCCCCC)CCCCCCCC (centres unmarked) [Compound 25],0.121,137 nm,0.151,120.1 nm,0.142,92.2 nm,93%,95%,93%,16.5 ng/mL,44.5 ng/mL,56.5 ng/mL,1.24
